According to patent publication US11472808B2, “Substituted pyrrolo[1,2-c]pyrimidines as hepatitis B antiviral agents” (Enanta Pharmaceuticals, Inc., priority 2019, dated 2022):
pEC50: −log10 of the molar value.

How the values were obtained:
HBV = experiment: HepAD38 anti-HBV assay: reduction of viral product accumulation (virion DNA qPCR, HBsAg/HBeAg ELISA); type: cell-based; conditions: Hepatitis B virus, 120 h; HepAD38 cells; concentration reducing viral product accumulation by 50% relative to no drug controls; harvest five days after compound addition; read-out: HepAD38 EC50
Method in brief: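 Tetracycline-free HepAD38 cells treated 5 days with compound (1:200 DMSO dilution), or 8 days with media and compound refreshed on d2 and d5. Virion DNA quantified by qPCR; HBsAg or HBeAg by ELISA. EC50 is the concentration reducing viral product accumulation 50% versus no-drug controls.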

[1] = Compound toxicity, ATPLite total ATP levels; type: cell-based; conditions: human, HepG2 cells; concentration reducing total ATP levels by 50% relative to no drug controls; ATPLite three days after compound addition
Protocol: Compound toxicity is evaluated by seeding cells at 15,000 cells/well and treating with compound as described above.

SMILES | pEC50 (HBV) | CC50 at 3 days [1]
O=S(=O)(N[C@H]1CC2=C(c3ccn(C(F)F)n3)[C@H](c3ccc(F)cc3Cl)N=C(c3nccs3)N2C1)C1(C[C@@H](O)CO)CC1 [Example 424] | > 7.00 | > 25 µM
O=S(=O)(N[C@H]1CC2=C(c3ccn(C(F)F)n3)[C@H](c3ccc(F)cc3Cl)N=C(c3nccs3)N2C1)N[C@H]1C[C@H](O)C1 [Example 157] | > 7.00 | > 25 µM
CC1(O)CCN(S(=O)(=O)N[C@H]2CC3=C(c4ccn(C(F)F)n4)[C@H](c4ccc(F)cc4Cl)N=C(c4nccs4)N3C2)CC1 [Example 256] | > 7.00 | > 25 µM
O=S(=O)(N[C@H]1CC2=C(c3ccn(C(F)F)n3)[C@H](c3ccc(F)cc3Cl)N=C(c3nccs3)N2C1)N1CCC(O)(c2ccccc2)CC1 [Example 257] | > 7.00 | 10 to 25 µM
O=C1NC2(CO1)CN(S(=O)(=O)N[C@H]1CC3=C(c4ccn(C(F)F)n4)[C@H](c4ccc(F)cc4Cl)N=C(c4nccs4)N3C1)C2 [Example 358] | > 7.00 | > 25 µM
O=S(=O)(N[C@H]1CC2=C(c3ccn(C(F)F)n3)[C@H](c3ccc(F)cc3Cl)N=C(c3nccs3)N2C1)c1ccc(S(=O)(=O)C(F)F)cc1 [Example 340] | > 7.00 | > 25 µM
O=S(=O)(N[C@H]1CC2=C(c3ccn(C(F)F)n3)[C@H](c3ccc(F)cc3Cl)N=C(c3nccs3)N2C1)[C@H]1CC[C@](O)(CO)CC1 [Example 100] | > 7.00 | > 25 µM
O=S(=O)(N[C@H]1CC2=C(c3ccn(C(F)F)n3)[C@H](c3ccc(F)cc3Cl)N=C(c3nccs3)N2C1)N1CCC(O)(c2ncccn2)CC1 [Example 303] | > 7.00 | > 25 µM
CC(C)C[C@H](NS(=O)(=O)N[C@H]1CC2=C(c3ccn(C(F)F)n3)[C@H](c3ccc(F)cc3Cl)N=C(c3nccs3)N2C1)c1ccccn1 [Example 359] | > 7.00 | > 25 µM
O=S(=O)(N[C@H]1CC2=C(c3ccn(C(F)F)n3)[C@H](c3ccc(F)cc3Cl)N=C(c3nccs3)N2C1)N[C@H]1CC[C@@H](O)CC1 [Example 154] | > 7.00 | > 25 µM
C[C@]1(O)CC[C@@H](c2ccc(S(=O)(=O)N[C@H]3CC4=C(c5ccn(C(F)F)n5)[C@H](c5ccc(F)cc5Cl)N=C(c5nccs5)N4C3)cc2)CC1 [Example 410] | > 7.00 | > 25 µM
O=S(=O)(N[C@H]1CC2=C(c3ccn(C(F)F)n3)[C@H](c3ccc(F)cc3Cl)N=C(c3nccs3)N2C1)N1CCC(O)(c2ncco2)CC1 [Example 261] | > 7.00 | > 25 µM
O=S(=O)(N[C@H]1CC2=C(c3ccn(C(F)F)n3)[C@H](c3ccc(F)cc3Cl)N=C(c3nccs3)N2C1)N1CCC(O)(CO)CC1 [Example 89] | > 7.00 | > 25 µM
O=S(=O)(N[C@H]1CC2=C(c3ccn(C(F)F)n3)[C@H](c3ccc(F)cc3Cl)N=C(c3nccs3)N2C1)C1(c2ccccn2)CC1 [Example 377] | > 7.00 | > 25 µM
O=Cc1ccc(S(=O)(=O)N[C@H]2CC3=C(c4ccn(C(F)F)n4)[C@H](c4ccc(F)cc4Cl)N=C(c4nccs4)N3C2)cc1 [Example 332] | > 7.00 | > 25 µM
Nc1cccc(S(=O)(=O)N[C@H]2CC3=C(c4ccn(C(F)F)n4)[C@H](c4ccc(F)cc4Cl)N=C(c4nccs4)N3C2)n1 [Example 383] | > 7.00 | > 25 µM
O=S(=O)(N[C@H]1CC2=C(c3ccn(C(F)F)n3)[C@H](c3ccc(F)cc3Cl)N=C(c3nccs3)N2C1)N[C@H]1C[C@@H](O)C1 [Example 156] | > 7.00 | > 25 µM
O=S(=O)(N[C@H]1CC2=C(c3ccn(C(F)F)n3)[C@H](c3ccc(F)cc3Cl)N=C(c3nccs3)N2C1)c1cccc(C(O)c2ccccn2)c1 (some centres unmarked) [Example 339] | > 7.00 | > 25 µM
O=S(=O)(N[C@H]1CC2=C(c3ccn(C(F)F)n3)[C@H](c3ccc(F)cc3Cl)N=C(c3nccs3)N2C1)c1cn[nH]c1 [Example 20] | > 7.00 | > 25 µM
O=C1NC[C@H](CNC(=O)c2cccc(S(=O)(=O)N[C@H]3CC4=C(c5ccn(C(F)F)n5)[C@H](c5ccc(F)cc5Cl)N=C(c5nccs5)N4C3)c2)O1 [Example 421] | > 7.00 | > 25 µM
CC(C)[C@H](NS(=O)(=O)N[C@H]1CC2=C(c3ccn(C(F)F)n3)[C@H](c3ccc(F)cc3Cl)N=C(c3nccs3)N2C1)c1ccccn1 [Example 342] | > 7.00 | > 25 µM
N#CCCCS(=O)(=O)N[C@H]1CC2=C(c3ccn(C(F)F)n3)[C@H](c3ccc(F)cc3Cl)N=C(c3nccs3)N2C1 [Example 135] | > 7.00 | > 25 µM
O=S1(=O)CCN(S(=O)(=O)N[C@H]2CC3=C(c4ccn(C(F)F)n4)[C@H](c4ccc(F)cc4Cl)N=C(c4nccs4)N3C2)CC1 [Example 150] | > 7.00 | > 25 µM

SMILES | pEC50 (HBV) | CC50 at 3 days [1]
O=S(=O)(N[C@H]1CC2=C(c3ccn(C(F)F)n3)[C@H](c3ccc(F)cc3Cl)N=C(c3nccs3)N2C1)N1C[C@H](F)[C@@H](F)C1 [Example 275] | > 7.00 | 10 to 25 µM
CS(=O)(=O)N1CCN(S(=O)(=O)N[C@H]2CC3=C(c4ccn(C(F)F)n4)[C@H](c4ccc(F)cc4Cl)N=C(c4nccs4)N3C2)CC1 [Example 151] | > 7.00 | > 25 µM
O=S(=O)(CCCCO)N[C@H]1CC2=C(c3ccn(C(F)F)n3)[C@H](c3ccc(F)cc3Cl)N=C(c3nccs3)N2C1 [Example 280] | > 7.00 | > 25 µM
O=S(=O)(N[C@H]1CC2=C(c3ccn(C(F)F)n3)[C@H](c3ccc(F)cc3Cl)N=C(c3nccs3)N2C1)c1ncc[nH]1 [Example 362] | > 7.00 | > 25 µM
CS(=O)(=O)CS(=O)(=O)N[C@H]1CC2=C(c3ccn(C(F)F)n3)[C@H](c3ccc(F)cc3Cl)N=C(c3nccs3)N2C1 [Example 335] | > 7.00 | > 25 µM
CN(CCO)S(=O)(=O)N[C@H]1CC2=C(c3ccn(C(F)F)n3)[C@H](c3ccc(F)cc3Cl)N=C(c3nccs3)N2C1 [Example 81] | > 7.00 | > 25 µM
O=C(N[C@H]1CC2=C(c3ccn(C(F)F)n3)[C@H](c3ccc(F)cc3Cl)N=C(c3nccs3)N2C1)c1ccccn1 [Example 214] | > 7.00 | 10 to 25 µM
O=C1NCCN1C1CCN(S(=O)(=O)N[C@H]2CC3=C(c4ccn(C(F)F)n4)[C@H](c4ccc(F)cc4Cl)N=C(c4nccs4)N3C2)CC1 [Example 294] | > 7.00 | > 25 µM
O=S1(=O)NCCN1[C@H]1CC2=C(c3ccn(C(F)F)n3)[C@H](c3ccc(F)cc3Cl)N=C(c3nccs3)N2C1 [Example 376] | > 7.00 | > 25 µM
O=S(=O)(N[C@H]1CC2=C(c3ccn(C(F)F)n3)[C@H](c3ccc(F)cc3Cl)N=C(c3nccs3)N2C1)c1cccnc1 [Example 365] | > 7.00 | > 25 µM
O=S(=O)(N[C@H]1CC2=C(c3ccn(C(F)F)n3)[C@H](c3ccc(F)cc3Cl)N=C(c3nccs3)N2C1)N1CCC(O)(c2ccncc2)CC1 [Example 259] | > 7.00 | > 25 µM
O=S(=O)(N[C@H]1CC2=C(c3ccn(C(F)F)n3)[C@H](c3ccc(F)cc3Cl)N=C(c3nccs3)N2C1)N1CCC(O)(C2CC2)CC1 [Example 270] | > 7.00 | < 10 µM
O=C1OCCN1C1CCN(S(=O)(=O)N[C@H]2CC3=C(c4ccn(C(F)F)n4)[C@H](c4ccc(F)cc4Cl)N=C(c4nccs4)N3C2)CC1 [Example 302] | > 7.00 | > 25 µM
O=S(=O)(N[C@H]1CC2=C(c3ccn(C(F)F)n3)[C@H](c3ccc(F)cc3Cl)N=C(c3nccs3)N2C1)N1C[C@@H](F)[C@@H](F)C1 [Example 274] | > 7.00 | < 10 µM
O=S(=O)(N[C@H]1CC2=C(c3ccn(C(F)F)n3)[C@H](c3ccc(F)cc3Cl)N=C(c3nccs3)N2C1)N1CCC(CO)CC1 [Example 88] | > 7.00 | > 25 µM
O=S(=O)(N[C@H]1CC2=C(c3ccn(C(F)F)n3)[C@H](c3ccc(F)cc3Cl)N=C(c3nccs3)N2C1)c1cccc(-c2cccnc2)n1 [Example 378] | > 7.00 | > 25 µM
O=S(=O)(N[C@H]1CC2=C(c3ccn(C(F)F)n3)[C@H](c3ccc(F)cc3Cl)N=C(c3nccs3)N2C1)C1(CCO)CC1 [Example 379] | > 7.00 | 10 to 25 µM
O=S(=O)(N[C@H]1CC2=C(c3ccn(C(F)F)n3)[C@H](c3ccc(F)cc3Cl)N=C(c3nccs3)N2C1)N1CCC[C@H](O)C1 [Example 93] | > 7.00 | > 25 µM
CS(=O)(=O)c1ccc(S(=O)(=O)N[C@H]2CC3=C(c4ccn(C(F)F)n4)[C@H](c4ccc(F)cc4Cl)N=C(c4nccs4)N3C2)cc1 [Example 323] | > 7.00 | 10 to 25 µM
O=S(=O)(N[C@H]1CC2=C(c3ccn(C(F)F)n3)[C@H](c3ccc(F)cc3Cl)N=C(c3nccs3)N2C1)N1CC(O)C1 [Example 95] | > 7.00 | > 25 µM
O=S(=O)(N[C@H]1CC2=C(c3ccn(C(F)F)n3)[C@H](c3ccc(F)cc3Cl)N=C(c3nccs3)N2C1)N1CCC[C@@H]1C(F)(F)F [Example 287] | > 7.00 | 10 to 25 µM
O=S(=O)(N[C@H]1CC2=C(c3ccn(C(F)F)n3)[C@H](c3ccc(F)cc3Cl)N=C(c3nccs3)N2C1)N1CCC(O)(C2CCCC2)CC1 [Example 267] | > 7.00 | > 25 µM
O=S(=O)(NC(c1ccccn1)c1ccccn1)N[C@H]1CC2=C(c3ccn(C(F)F)n3)[C@H](c3ccc(F)cc3Cl)N=C(c3nccs3)N2C1 [Example 361] | > 7.00 | > 25 µM
